The values below come from US20240317708A1, “INHIBITORS OF TRANSGLUTAMINASES” (ZEDIRA GMBH, priority 2021, published 2024).

Structures are written as SMILES.

The target in series [1] is T1, recombinant human transglutaminase 2 (Homo sapiens, UniProt P21980).
T1 construct: purchased Zedira T022
T1 sequence (P21980 1-687): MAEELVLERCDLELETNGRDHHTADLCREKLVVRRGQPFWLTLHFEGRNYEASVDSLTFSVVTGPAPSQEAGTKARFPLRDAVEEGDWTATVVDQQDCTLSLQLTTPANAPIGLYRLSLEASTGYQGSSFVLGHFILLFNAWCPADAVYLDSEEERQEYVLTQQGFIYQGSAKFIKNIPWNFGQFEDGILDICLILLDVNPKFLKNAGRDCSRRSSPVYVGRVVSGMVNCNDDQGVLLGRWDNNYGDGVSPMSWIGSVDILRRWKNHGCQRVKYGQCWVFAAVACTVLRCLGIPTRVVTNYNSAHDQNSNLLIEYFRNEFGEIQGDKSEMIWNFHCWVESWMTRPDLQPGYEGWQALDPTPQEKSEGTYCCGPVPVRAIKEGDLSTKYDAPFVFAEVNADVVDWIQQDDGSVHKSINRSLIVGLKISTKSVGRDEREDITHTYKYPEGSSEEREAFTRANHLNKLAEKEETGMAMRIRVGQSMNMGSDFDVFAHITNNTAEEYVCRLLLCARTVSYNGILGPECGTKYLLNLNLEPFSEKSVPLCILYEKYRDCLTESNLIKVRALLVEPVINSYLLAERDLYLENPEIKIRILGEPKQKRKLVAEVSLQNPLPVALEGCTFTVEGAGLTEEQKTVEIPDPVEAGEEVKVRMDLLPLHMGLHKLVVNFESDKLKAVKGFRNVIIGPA
The series is described as follows: Transglutaminase assay (dansylcadaverine incorporation into dimethylcasein, DCC-assay). It counts as biochemical. To be noted: for IC50: recombinant human TG2 10 nM, dansylcadaverine/dimethylcasein, 37° C. The procedure:
For the determination of potency of inhibitors against tissue transglutaminase, the incorporation of dansylcadaverine into dimethylcasein (Zedira product T036, Lorand et al., Anal Biochem, 1971, 44:221-31) was measured using recombinant human transglutaminase 2 (Zedira Product T022).
The tissue transglutaminase is diluted in buffer (50 mM Tris-HCl, 7.5 mM CaCl2, 150 mM NaCl, pH=7.4). The final concentration of TG2 in the assay is 10 nM.
A 10 mM inhibitor stock solution is prepared in DMSO, and from this a serial 1:2-fold dilution series is prepared also in DMSO. Each of the initial dilutions is subsequently diluted 1:50-fold with buffer (50 mM Tris-HCl, 7.5 mM CaCl2, 150 mM NaCl, pH=7.4) to yield the final working dilutions containing 2% (v/v) DMSO.
15 μl of inhibitor working dilution are added per well of a 96 well microtiter plate. As control, 15 μl of a 2% (v/v) DMSO solution prepared using the buffer mentioned above are added per well.
Immediately before starting the assay, 600 μl transglutaminase working solution are added to 11.4 ml assay buffer (50 mM Tris-HCl, 10 mM CaCl2, 10 mM glutathione, 2.5% glycerol, 16.7 μM dansylcadaverine, 4 μM N,N-dimethylcasein, 200 mM NaCl, pH=8.0). 285 μl of this reaction mix are added per well containing the inhibitor.
Increase in fluorescence is measured using λex=330 nm and λem=500 nm at 37° C. for 30 min. A slope of the increase in fluorescence between 20 and 30 min is calculated for determination of the IC50 value (inhibitor concentration at which 50% of the initial activity is blocked).
Analysis of enzymatic activity is performed by calculation of the slope of an increase in fluorescence intensity. IC50 values are calculated by plotting the enzymatic activity (as percentage from control containing 2% DMSO instead of inhibitor) against the inhibitor concentration. IC50 is defined as the inhibitor concentration blocking 50% of initial enzyme activity.

Series [2] is described as follows: Caco-2 permeability assay (CacoReady kit). It counts as in vitro ADME. To be noted: human. The procedure: Permeability coefficients (Papp values) were obtained from Caco-2 barrier studies predicting oral/intestinal bioavailability of the tested compounds. The assays were performed by using CacoReady™ ready-to-use kits from ReadyCell according to the manufacturers protocol.
On the technique in general: Passage across Caco-2 layers is used to estimate intestinal permeability.

A short description of series [3]: Log D shake flask method (octanol / PBS pH 7.4, HPLC). It counts as physicochemical. Particulars: octanol/phosphate-buffered saline (PBS); octanol / PBS pH 7.4, shake flask. The procedure:
In order to classify the inventive compounds according to their lipophilicity, Log D values (distribution coefficient) were determined by means of the well-established shake flask method, measuring the partition of a compound between an octanol and phosphate-buffered saline (PBS, pH 7.4) by HPLC.

For `COC(=O)/C=C/CC[C@H](NC(=O)c1oc2ccccc2c1C)C(=O)Nc1cccn(CC(=O)N[C@]23C[C@H]4C5CC6CC4[C@@H](C2)[C@@H](C6)[C@@H]5C3)c1=O` (stereo in doubt) [III-74, (S,E)-methyl 7-(1-(2-(diamantane-4-amino)-2-oxoethyl)-2-oxo-1,2-dihydropyridin-3-ylamino)-6-(3-methylbenzofuran-2-carboxamido)-7-oxohept-2-enoate], in series [1], the half-inhibitory concentration (IC50) is less than 25 nM. For the same molecule, in series [2], the Papp was 1 to 10 ×10⁻⁶ cm/s. This molecule came in with a logD in series [3] of 3 to 5.

`COC(=O)/C=C/CC[C@H](NC(=O)c1cncn1C)C(=O)Nc1cccn(CC(=O)NC2C3CC4CC(C3)CC2C4)c1=O` (stereo partly drawn) [III-1, (S,E)-methyl 7-(1-(2-(2-adamantylamino)-2-oxoethyl)-2-oxo-1,2-dihydropyridin-3-ylamino)-6-(1-methyl-1H-imidazole-5-carboxamido)-7-oxohept-2-enoate]: in series [1], the IC50 is less than 25 nM. Moreover, in series [2], the Papp is less than 1 ×10⁻⁶ cm/s. Besides, in series [3], the logD is 1 to 3.

As to `COC(=O)/C=C/CC[C@H](NC(=O)c1oc2ccccc2c1C)C(=O)Nc1cccn(CC(=O)NC2C3CC4CC(C3)CC2C4)c1=O` (stereo partly drawn) [III-2, (S,E)-methyl 7-(1-(2-(2-adamantylamino)-2-oxoethyl)-2-oxo-1,2-dihydropyridin-3-ylamino)-6-(3-methylbenzofuran-2-carboxamido)-7-oxohept-2-enoate], the IC50 in series [1] was less than 25 nM. The Papp in series [2] was in the range of 1 to 10 ×10⁻⁶ cm/s. In series [3], this molecule returned a logD of 3 to 5.

With `COC(=O)/C=C/CC[C@H](NC(=O)c1oc2ccccc2c1Cl)C(=O)Nc1cccn(CC(=O)NC2C3CC4CC(C3)CC2C4)c1=O` (stereo partly drawn) [III-3, (S,E)-methyl 6-(3-chlorobenzofuran-2-carboxamido)-7-(1-(2-(2-adamantylamino)-2-oxoethyl)-2-oxo-1,2-dihydropyridin-3-ylamino)-7-oxohept-2-enoate], the IC50 in series [1] is less than 25 nM. Moreover, the Papp in series [2] was 1 to 10 ×10⁻⁶ cm/s. In series [3], this molecule gave a logD of 3 to 5.

`COC(=O)/C=C/CC[C@H](NC(=O)c1cc2c(Br)cccc2o1)C(=O)Nc1cccn(CC(=O)NC2C3CC4CC(C3)CC2C4)c1=O` (stereo partly drawn) [III-4, (S,E)-methyl 6-(4-bromobenzofuran-2-carboxamido)-7-(1-(2-(2-adamantylamino)-2-oxoethyl)-2-oxo-1,2-dihydropyridin-3-ylamino)-7-oxohept-2-enoate]: the IC50 in series [1] was less than 25 nM. The molecule also registered an apparent permeability coefficient (Papp) in series [2] of 1 to 10 ×10⁻⁶ cm/s. In series [3], the logD was 3 to 5.

Regarding `COC(=O)/C=C/CC[C@H](NC(=O)c1cc2ccccc2s1)C(=O)Nc1cccn(CC(=O)NC2C3CC4CC(C3)CC2C4)c1=O` (stereo partly drawn) [III-5, (S,E)-methyl 6-(benzo[b]thiophene-2-carboxamido)-7-(1-(2-(2-adamantylamino)-2-oxoethyl)-2-oxo-1,2-dihydropyridin-3-ylamino)-7-oxohept-2-enoate], the IC50 in series [1] is less than 25 nM. This molecule also yielded a Papp in series [2] of 1 to 10 ×10⁻⁶ cm/s. This molecule showed a logD in series [3] of 3 to 5.

For the molecule `COC(=O)/C=C/CC[C@H](NC(=O)c1cc2cc(Br)ccc2s1)C(=O)Nc1cccn(CC(=O)NC2C3CC4CC(C3)CC2C4)c1=O` (stereo partly drawn) [III-6, (S,E)-methyl 6-(5-bromobenzo[b]thiophene-2-carboxamido)-7-(1-(2-(2-adamantylamino)-2-oxoethyl)-2-oxo-1,2-dihydropyridin-3-ylamino)-7-oxohept-2-enoate], the IC50 in series [1] was less than 25 nM. Moreover, the Papp in series [2] lay in the range of 1 to 10 ×10⁻⁶ cm/s. The molecule also displayed a logD in series [3] of 3 to 5.

For `COC(=O)/C=C/CC[C@H](NC(=O)c1cc2cccc(F)c2s1)C(=O)Nc1cccn(CC(=O)NC2C3CC4CC(C3)CC2C4)c1=O` (stereo partly drawn) [III-7, (S,E)-methyl 6-(7-fluorobenzo[b]thiophene-2-carboxamido)-7-(1-(2-(2-adamantylamino)-2-oxoethyl)-2-oxo-1,2-dihydropyridin-3-ylamino)-7-oxohept-2-enoate], the 50% inhibitory concentration (IC50) in series [1] was less than 25 nM. The Papp in series [2] lay within 1 to 10 ×10⁻⁶ cm/s. Moreover, the logD in series [3] lay in the range of 3 to 5.

Turning to `COC(=O)/C=C/CC[C@H](NC(=O)c1cc2ccccc2[nH]1)C(=O)Nc1cccn(CC(=O)NC2C3CC4CC(C3)CC2C4)c1=O` (stereo partly drawn) [III-8, (S,E)-methyl 6-(1H-indole-2-carboxamido)-7-(1-(2-(2-adamantylamino)-2-oxoethyl)-2-oxo-1,2-dihydropyridin-3-ylamino)-7-oxohept-2-enoate], the IC50 in series [1] was less than 25 nM. Besides, the apparent permeability coefficient (Papp) in series [2] was less than 1 ×10⁻⁶ cm/s. The molecule further had a logD in series [3] of 3 to 5.

For the molecule `COC(=O)/C=C/CC[C@H](NC(=O)c1cc2c(F)c(F)ccc2[nH]1)C(=O)Nc1cccn(CC(=O)NC2C3CC4CC(C3)CC2C4)c1=O` (stereo partly drawn) [III-9, (S,E)-methyl 6-(4,5-difluoro-1H-indole-2-carboxamido)-7-(1-(2-(2-adamantylamino)-2-oxoethyl)-2-oxo-1,2-dihydropyridin-3-ylamino)-7-oxohept-2-enoate], the IC50 in series [1] is less than 25 nM. This molecule gave a Papp in series [2] of less than 1 ×10⁻⁶ cm/s. This molecule gave a logD in series [3] of 3 to 5.

Regarding `COC(=O)/C=C/CC[C@H](NC(=O)c1[nH]c2ccccc2c1C)C(=O)Nc1cccn(CC(=O)NC2C3CC4CC(C3)CC2C4)c1=O` (stereo partly drawn) [III-10, (S,E)-methyl 7-(1-(2-(2-adamantylamino)-2-oxoethyl)-2-oxo-1,2-dihydropyridin-3-ylamino)-6-(3-methyl-1H-indole-2-carboxamido)-7-oxohept-2-enoate], the IC50 in series [1] is less than 25 nM. In addition, the Papp in series [2] lay within 1 to 10 ×10⁻⁶ cm/s. The molecule further displayed a logD in series [3] of 3 to 5.

`COC(=O)/C=C/CC[C@H](NC(=O)c1nc2ccccc2[nH]1)C(=O)Nc1cccn(CC(=O)NC2C3CC4CC(C3)CC2C4)c1=O` (stereo partly drawn) [III-11, (S,E)-methyl 6-(1H-benzo[d]imidazole-2-carboxamido)-7-(1-(2-(2-adamantylamino)-2-oxoethyl)-2-oxo-1,2-dihydropyridin-3-ylamino)-7-oxohept-2-enoate]: in series [1], the IC50 fell in the range of 25 to 250 nM. Besides, the Papp in series [2] was less than 1 ×10⁻⁶ cm/s. The molecule further yielded a logD in series [3] of 3 to 5.

As to `COC(=O)/C=C/CC[C@H](NC(=O)C1Cc2ccccc2C1)C(=O)Nc1cccn(CC(=O)NC2C3CC4CC(C3)CC2C4)c1=O` (stereo partly drawn) [III-12, (S,E)-methyl 6-(2,3-dihydro-1H-indene-2-carboxamido)-7-(1-(2-(2-adamantylamino)-2-oxoethyl)-2-oxo-1,2-dihydropyridin-3-ylamino)-7-oxohept-2-enoate], in series [1], the IC50 was less than 25 nM. Moreover, in series [2], the Papp fell in the range of 1 to 10 ×10⁻⁶ cm/s. This molecule also showed a logD in series [3] of 3 to 5.

Turning to `COC(=O)/C=C/CC[C@H](NC(=O)c1cn[nH]n1)C(=O)Nc1cccn(CC(=O)NC2C3CC4CC(C3)CC2C4)c1=O` (stereo partly drawn) [III-102, (S,E)-methyl 7-(1-(2-(2-adamantylamino)-2-oxoethyl)-2-oxo-1,2-dihydropyridin-3-ylamino)-7-oxo-6-(1H-1,2,3-triazole-4-carboxamido)hept-2-enoate], in series [1], the IC50 was 25 to 250 nM.

Regarding `CCC(CC)CNC(=O)Cn1cccc(NC(=O)[C@H](CC/C=C/C(=O)OC)NC(=O)c2cncn2C)c1=O` [Ref. 2, reference compound], the “fold more potent compared to Ref. 3” value in series [1] (DCC-assay IC50 ratio vs Ref. 3 (A8)) is on record as 80 fold. In addition, the IC50 in series [1] lay in the range of 25 to 250 nM.

The term IC50 denotes the concentration that inhibits the measured activity by half. The term Papp denotes the rate of passage across a membrane or cell layer, normalised by area and donor concentration. High values mean fast passage, low ones slow passage. In general, logD refers to lipophilicity at a set pH, counting ionised and neutral species.
